The supplement of paper PMC10307832

What was measured:
Assay in all cases: relative viability (nuclei count vs DMSO), 5 days (fraction); higher = more cells survive
[1] = compound: CC1=CC=C(C=C1)C(=O)CN2C3=C(CCCC3)SC2=N [Pifithrin_alpha] + CC1(C)CCC(c2ccc(Cl)cc2)=C(CN2CCN(c3ccc(C(=O)NS(=O)(=O)c4ccc(N[C@H](CCN5CCOCC5)CSc5ccccc5)c(S(=O)(=O)C(F)(F)F)c4)cc3)CC2)C1 [Navitoclax] (partner 0.5 µM)
Summary of the method: (§1)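 After 5 days of treatment, lung cancer cells in 1536-well plates were fixed and stained in a single step (final 0.05% Triton X-100, 1% formaldehyde, 1 ug/ml Hoechst) and their nuclei counted on 4× images. Treatment had been applied by pin tool the day after seeding as one drug alone or as a fixed anchor-drug dose with five library-drug doses (not always all listed) in √10 steps. Relative viability is the nuclei count of treated wells divided by that of vehicle wells, and values are medians of duplicate plates.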

Axitinib + Palbociclib = compound: CNC(=O)c1ccccc1Sc1ccc2c(/C=C/c3ccccn3)n[nH]c2c1 [Axitinib] + CC(=O)c1c(C)c2cnc(Nc3ccc(N4CCNCC4)cn3)nc2n(C2CCCC2)c1=O [Palbociclib] (partner 0.5 µM)
Summary of the method: as §1

Axitinib + Navitoclax = compound: CNC(=O)c1ccccc1Sc1ccc2c(/C=C/c3ccccn3)n[nH]c2c1 [Axitinib] + CC1(C)CCC(c2ccc(Cl)cc2)=C(CN2CCN(c3ccc(C(=O)NS(=O)(=O)c4ccc(N[C@H](CCN5CCOCC5)CSc5ccccc5)c(S(=O)(=O)C(F)(F)F)c4)cc3)CC2)C1 [Navitoclax] (partner 0.5 µM)
Summary of the method: as §1

Bemcentinib + Pemetrexed = compound: Nc1nc(Nc2ccc3c(c2)CC[C@@H](N2CCCC2)CC3)nn1-c1cc2c(nn1)-c1ccccc1CCC2 [Bemcentinib] + Nc1nc2[nH]cc(CCc3ccc(C(=O)N[C@@H](CCC(=O)O)C(=O)O)cc3)c2c(=O)[nH]1 [Pemetrexed] (partner 0.2 µM)
Summary of the method: as §1

Cell Line | relative viability ([1]; first compound 1 µM) | relative viability ([1]; first compound 3.162 µM) | relative viability ([1]; first compound 10 µM) | relative viability ([1]; first compound 100 µM) | relative viability (Axitinib + Palbociclib; first compound 0.005 µM) | relative viability (Axitinib + Palbociclib; first compound 0.01581 µM) | relative viability (Axitinib + Palbociclib; first compound 0.05 µM) | relative viability (Axitinib + Palbociclib; first compound 0.1581 µM) | relative viability (Axitinib + Palbociclib; first compound 0.5 µM) | relative viability (Axitinib + Navitoclax; first compound 0.005 µM) | relative viability (Axitinib + Navitoclax; first compound 0.01581 µM) | relative viability (Axitinib + Navitoclax; first compound 0.05 µM) | relative viability (Axitinib + Navitoclax; first compound 0.1581 µM) | relative viability (Axitinib + Navitoclax; first compound 0.5 µM) | relative viability (Bemcentinib + Pemetrexed; first compound 0.04 µM) | relative viability (Bemcentinib + Pemetrexed; first compound 0.1265 µM) | relative viability (Bemcentinib + Pemetrexed; first compound 0.4 µM) | relative viability (Bemcentinib + Pemetrexed; first compound 1.265 µM) | relative viability (Bemcentinib + Pemetrexed; first compound 4 µM) | relative viability ([1]; first compound 31.62 µM)
NCI-H1944 | 1.11 | 1.04 | 0.946 | 1.02 | 0.365 | 0.342 | 0.328 | 0.318 | 0.307 | 1.07 | 0.995 | 1.01 | 1.02 | 1.06 | 0.633 | 0.66 | 0.649 | 0.589 | 0.634 | –
NCI-H1792 | 0.438 | 0.753 | 0.339 | 0.529 | 0.654 | 0.635 | 0.592 | 0.564 | 0.654 | 0.637 | 0.527 | 0.62 | 0.562 | 0.366 | 0.918 | 0.988 | 1.06 | 0.68 | 0.85 | 0.325
UMC-11 | 0.288 | 0.312 | 0.312 | 0.331 | 0.316 | 0.318 | 0.313 | 0.302 | 0.311 | 0.322 | 0.305 | 0.282 | 0.347 | 0.294 | 0.839 | 0.881 | 0.969 | 0.808 | 0.728 | 0.337
PC-3 [JPC-3] | 0.749 | 0.74 | 0.746 | 0.726 | 0.558 | – | 0.556 | 0.603 | 0.61 | 0.827 | – | 0.787 | 0.82 | 0.928 | 1.12 | 1.32 | 1.28 | 1.07 | 1.07 | 0.789
LU99A | 0.823 | 0.782 | 0.874 | 0.892 | 0.408 | 0.416 | 0.394 | 0.438 | 0.417 | 0.858 | 0.805 | 0.83 | 0.773 | 0.902 | 0.139 | 0.321 | 0.241 | 0.154 | 0.16 | –
CAL-12T | – | 1.22 | 1.16 | 1.15 | 0.586 | 0.508 | 0.41 | 0.525 | 0.522 | 1.29 | 1.47 | 1.15 | 1.19 | 1.45 | 1.11 | 1.47 | 1.09 | 1.1 | 1.13 | 0.686
NCI-H2087 | 0.948 | 1.04 | 0.998 | 0.715 | 0.251 | 0.202 | 0.294 | 0.265 | 0.255 | 1.24 | 1.1 | 1.04 | 0.899 | 1.07 | 0.772 | 0.798 | 0.64 | 0.611 | 0.685 | 0.742
LCLC-97TM1 | – | 0.548 | 0.513 | 0.425 | 0.27 | 0.263 | 0.199 | 0.201 | 0.239 | 0.485 | 0.506 | 0.475 | 0.489 | 0.534 | 0.16 | 0.177 | 0.182 | 0.177 | 0.177 | –
BEN | 0.0519 | 0.0641 | 0.0597 | 0.0656 | 0.474 | 0.433 | 0.459 | 0.518 | 0.515 | 0.074 | 0.0723 | 0.0728 | 0.0721 | 0.0571 | 0.62 | 0.895 | 0.782 | 0.678 | 0.592 | 0.0612
NCI-H1915 | 0.791 | 0.793 | 0.788 | 0.801 | 0.526 | 0.534 | 0.512 | 0.524 | 0.566 | 0.802 | 0.778 | 0.77 | 0.753 | 0.812 | 0.48 | 0.533 | 0.538 | 0.489 | 0.443 | –
HARA | 1.17 | 1.22 | 1.17 | 0.945 | 0.241 | 0.334 | 0.216 | 0.221 | 0.247 | 0.979 | 1.08 | 1.14 | 1.08 | 1.19 | 0.236 | 0.243 | 0.241 | 0.245 | 0.196 | 0.767
NCI-H1650 | 1.31 | 1.15 | 0.973 | 0.865 | 0.423 | 0.322 | 0.412 | 0.313 | 0.486 | 1.27 | 0.981 | 1.35 | 1.24 | 1.41 | 0.327 | 0.337 | 0.414 | 0.391 | 0.364 | 0.675
EMC-BAC-2 | 1.22 | 1.29 | 1.17 | 1.31 | 0.522 | 0.562 | 0.49 | 0.508 | 0.533 | 1.27 | 1.12 | 1.16 | 1.16 | 1.27 | 0.442 | 0.475 | 0.48 | 0.416 | 0.419 | 0.933
HCC-44 | 0.8 | 0.899 | 0.795 | 0.801 | 0.946 | 0.967 | 0.988 | 0.96 | 1.04 | 1.04 | 1.06 | 0.99 | 0.939 | 1.12 | 0.676 | 0.665 | 0.684 | 0.723 | 0.679 | 0.701
LOU-NH91 | 0.502 | 0.576 | 0.643 | 0.517 | 0.564 | 0.568 | 0.537 | 0.444 | 0.527 | 0.744 | 0.467 | 0.66 | 0.645 | 0.802 | 0.408 | 0.369 | 0.4 | 0.45 | 0.376 | 0.409
NCI-H3122 | 1.03 | 1.02 | 1.03 | 1.05 | 0.171 | 0.198 | 0.205 | 0.206 | 0.184 | 0.992 | 0.956 | 1.05 | 1.02 | 1.04 | – | 0.222 | 0.213 | 0.194 | 0.2 | 0.845
